# Laboratory results as given in patent US20190105367A1, “ANTIMICROBIAL 4-OXOQUINOLIZINES” (Emergent Product Development Gaithersburg Inc., priority 2011, published 2019).
# Like-named read-outs stand apart in the source and are kept apart here.
# Experiments:
# A. baumannii A489 [1] = test: Preliminary MBC without and with sub-inhibitory polymyxin B (Example 4); type: cell-based, Acinetobacter baumannii; conditions: Acinetobacter baumannii, preliminary MBC
# A. baumannii A472 [2] = test: as above; type: cell-based, Acinetobacter baumannii; conditions: Acinetobacter baumannii, preliminary MBC
# A. baumannii A14 [3] = test: as above; type: cell-based, Acinetobacter baumannii; conditions: A. baumannii A14; +0.06 μg/ml polymyxin B; preliminary MBC; 1st experiment
# A. baumannii A401 [4] = test: MIC without and with sub-inhibitory polymyxin B (Example 4); type: cell-based, Acinetobacter baumannii; conditions: A baumannii A 401; ratio, PB 0.06 μg/ml; 1st experiment
# A. baumannii A329 [5] = test: as above; type: cell-based, Acinetobacter baumannii; conditions: A. baumannii A329; +0.06 μg/ml PB; 2nd experiment
# A. baumannii NCTC 13301 [6] = test: as above; type: cell-based, Acinetobacter baumannii; conditions: +[…] PB, 2nd experiment
# A. baumannii A489 [7] = test: as above; type: cell-based, Acinetobacter baumannii; conditions: for MIC without PB/MIC + PB: A. baumannii A489; for MIC: Acinetobacter baumannii
# A. baumannii A472 [8] = test: as above; type: cell-based, Acinetobacter baumannii; conditions: for MIC: Acinetobacter baumannii
# A. baumannii A14 [9] = test: as above; type: cell-based, Acinetobacter baumannii; conditions: A. baumannii A14; +0.06 μg/ml PB; 2nd experiment
# A. baumannii J2 [10] = test: as above; type: cell-based, Acinetobacter baumannii; conditions: for MIC without PB/MIC + PB: A. baumannii J2; for MIC: Acinetobacter baumannii
# [11] = tested on: Acinetobacter sp. (H064200250); test: as above; type: cell-based
# A. baumannii NCTC 13301 [12] = test: as above; type: cell-based, Acinetobacter baumannii
# A. baumannii A401 [13] = test: Preliminary MBC without and with sub-inhibitory polymyxin B (Example 4); type: cell-based, Acinetobacter baumannii; conditions: Acinetobacter baumannii
# A. baumannii A329 [14] = test: as above; type: cell-based, Acinetobacter baumannii; conditions: A. baumannii A329, +0.06 μg/ml PB, 2nd experiment
# A. baumannii J2 [15] = test: as above; type: cell-based, Acinetobacter baumannii; conditions: Acinetobacter baumannii, preliminary MBC
# [16] = tested on: strains of A. baumannii and one strain of Acinetobacter sp.; test: MIC with sub-inhibitory concentrations (0.25x MIC) of polymyxin B, panel of Acinetobacter strains (Example 4); type: cell-based
# A. baumannii ATCC 19606 = test: MIC without and with sub-inhibitory polymyxin B (Example 4); type: cell-based, Acinetobacter baumannii; conditions: A. baumannii ATCC 19606
# A. baumannii A14 [17] = test: as above; type: cell-based, Acinetobacter baumannii; conditions: 1st experiment
# A. baumannii A390 [18] = test: as above; type: cell-based, Acinetobacter baumannii; conditions: +0.06 μg/ml PB, 2nd experiment
# A. baumannii A473 = test: Preliminary MBC without and with sub-inhibitory polymyxin B (Example 4); type: cell-based, Acinetobacter baumannii; conditions: A. baumannii A473, +0.06 μg/ml PB, 2nd experiment
# In short: (§1)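 Plates were incubated for 18-20 hours at 37° C. MBC was taken as the lowest concentration giving colony growth ca. 90% below the positive control, typically where only single colonies or none appeared.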
# A. baumannii A390 [19] = test: as above; type: cell-based, Acinetobacter baumannii; conditions: Acinetobacter baumannii, A390, A. baumannii A390, +0.06 μg/ml PB, 2nd experiment
# In short: as §1
# A. baumannii A14 [20] = test: as above; type: cell-based, Acinetobacter baumannii; conditions: A. baumannii A14, +0.06 μg/ml PB, 2nd experiment
# In short: as §1
# A. baumannii NCTC 13301 [21] = test: as above; type: cell-based, Acinetobacter baumannii; conditions: Acinetobacter baumannii
# In short: as §1
smiles,measurement,setting,value
COc1c(N2C[C@@H]3CCCN[C@@H]3C2)c(F)cc2c(=O)c(C(=O)O)cn(C3CC3)c12 [Moxifloxacin],MBC,"A. baumannii A489 [1]; A489, A. baumannii A489, +[…] PB, 2nd experiment",4 µg/mL
same,MBC,"A. baumannii A489 [1]; A489, read-out: MBC +[…] PB, A. baumannii A489, +[…] polymyxin B, 1st experiment",4 µg/mL
same,MBC,"A. baumannii A472 [2]; A472, A. baumannii A472, +[…] PB, 2nd experiment",4 µg/mL
same,MBC,"A. baumannii A472 [2]; A472, read-out: MBC +[…] PB, A. baumannii A472, +[…] polymyxin B, 1st experiment",4 µg/mL
same,MBC +0.06 μg/ml PB,A. baumannii A14 [3],32 µg/mL
same,MIC without PB/MIC + PB,A. baumannii A401 [4],2
same,MIC without PB/MIC + PB,A. baumannii A329 [5],1
same,MIC without PB/MIC + PB,A. baumannii NCTC 13301 [6]; A. baumannii NCTC 13301,8
same,MIC,"A. baumannii NCTC 13301 [6]; Acinetobacter baumannii, NCTC13301, A. baumannii NCTC 13301, read-out: MIC",8 µg/mL
same,MIC without PB/MIC + PB,"A. baumannii A489 [7]; +[…] PB, 2nd experiment",4
same,MIC without PB/MIC + PB,"A. baumannii A489 [7]; ratio, PB […], 1st experiment",4
same,MIC,"A. baumannii A489 [7]; A489, A. baumannii A489, +[…] PB, 2nd experiment, read-out: MIC",4 µg/mL
same,MIC,"A. baumannii A489 [7]; A489, read-out: MIC +[…] PB, A. baumannii A489, +[…] polymyxin B, 1st experiment",4 µg/mL
same,MIC without PB/MIC + PB,"A. baumannii A472 [8]; A. baumannii A472, ratio, PB […], 1st experiment",0.5
same,MIC,"A. baumannii A472 [8]; A472, A. baumannii A472, +[…] PB, 2nd experiment, read-out: MIC",4 µg/mL
same,MIC,"A. baumannii A472 [8]; A472, read-out: MIC +[…] PB, A. baumannii A472, +[…] polymyxin B, 1st experiment",32 µg/mL
same,MIC,A. baumannii A14 [9],16 µg/mL
same,MIC without PB/MIC + PB,A. baumannii A14 [9],2
same,MIC without PB/MIC + PB,"A. baumannii J2 [10]; +[…] PB, 2nd experiment",4
same,MIC without PB/MIC + PB,"A. baumannii J2 [10]; ratio, PB […], 1st experiment",4
same,MIC,"A. baumannii J2 [10]; J2, A. baumannii J2, +[…] PB, 2nd experiment, read-out: MIC",8 µg/mL
same,MIC,"A. baumannii J2 [10]; J2, read-out: MIC +[…] PB, A. baumannii J2, +[…] polymyxin B, 1st experiment",8 µg/mL
same,MIC without PB/MIC + PB,"[11]; Acinetobacter spp. H064200250 (OXA51), +[…] PB, 2nd experiment",1
same,MIC without PB/MIC + PB,"[11]; Acinetobacter spp. H064200250, ratio, PB […], 1st experiment",1
same,MIC without PB/MIC + PB,"A. baumannii NCTC 13301 [12]; A. baumannii NCTC 13301, ratio, PB […], 1st experiment",1
same,MIC,"A. baumannii NCTC 13301 [12]; Acinetobacter baumannii, NCTC13301, read-out: MIC +[…] PB",128 µg/mL
same,MBC,"A. baumannii A401 [13]; A401, A baumannii A 401, +0.06 μg/ml PB, 2nd experiment",8 µg/mL
same,MBC,"A. baumannii A401 [13]; A401, read-out: MBC +0.06 μg/ml PB, A baumannii A 401, +0.06 μg/ml polymyxin B, 1st experiment",8 µg/mL
same,MBC,A. baumannii A329 [14],32 µg/mL
same,MBC,"A. baumannii J2 [15]; J2, A. baumannii J2, +[…] PB, 2nd experiment",8 µg/mL
same,MBC,"A. baumannii J2 [15]; J2, read-out: MBC +[…] PB, A. baumannii J2, +[…] polymyxin B, 1st experiment",8 µg/mL
same,"Range ratios MIC without PB/MIC with PB Oct. 1, 2008 n = 8",[16]; 1st experiment,0.5-4
same,"MIC range with PB (0.25x MIC) Oct. 1, 2008 n = 8","[16]; 1st experiment, […] polymyxin B, ATCC 19606, A329, A390 and A473 not taken",4 to 128 µg/mL
same,"Range ratios MIC without PB/MIC with PB Oct. 14, 2008 n = 11",[16]; 2nd experiment,1-8
same,"MIC range with PB (0.25x MIC) Oct. 14, 2008 n = 11","[16]; 2nd experiment, 0.06 μg/ml polymyxin B, all strains except the ATCC strain",4 to 32 µg/mL
same,MIC without PB/MIC + PB,"A. baumannii ATCC 19606; +0.06 μg/ml PB, 2nd experiment",2
same,MIC without PB/MIC + PB,"A. baumannii ATCC 19606; ratio, PB 0.06 μg/ml, 1st experiment",1
same,MIC +0.06 μg/ml PB,A. baumannii A14 [17]; +0.06 μg/ml polymyxin B,32 µg/mL
same,MIC without PB/MIC + PB,"A. baumannii A14 [17]; ratio, PB 0.06 μg/ml",1
same,MIC without PB/MIC + PB,A. baumannii A390 [18]; A. baumannii A390,2
same,MIC,"A. baumannii A390 [18]; Acinetobacter baumannii, A390, A. baumannii A390, read-out: MIC",8 µg/mL
same,MBC,A. baumannii A473,8 µg/mL
same,MBC,A. baumannii A390 [19],8 µg/mL
same,MBC,A. baumannii A14 [20],16 µg/mL
same,MBC,"A. baumannii NCTC 13301 [21]; NCTC13301, A. baumannii NCTC 13301, +[…] PB, preliminary MBC, 2nd experiment",8 µg/mL
same,MBC,"A. baumannii NCTC 13301 [21]; NCTC13301, read-out: MBC +[…] PB",128 µg/mL
